# From patent US10329270B2, “Heteroaryl compounds as BTK inhibitors and uses thereof” (Merck Patent GmbH, priority 2013, dated 2019)
# Molecular target: T1, full-length human BTK (Homo sapiens, UniProt Q06187)
# T1 construct: 2.5× stocks of full-length human BTK (08-080); purchased CarnaBio USA, Inc., Natick, Mass; 08-080
# Assay: Assay A: BTK IC50 Enzyme Assay (microfluidic off-chip mobility shift kinase assay)
# Format: biochemical
# Details: full-length human BTK, kinKDR peptide substrate, incubated 90 min at 27 C; read-out: Assay A (Time Dependent BTK Enzyme Assay IC50)
# Experimental: Assay A: BTK IC50 Enzyme Assay
# The following describes a microfluidic, off-chip mobility shift kinase assay used to measure inherent potency of compounds against BTK enzyme. Compounds described by embodiments of the present invention were assayed using this protocol and the data from the same is recorded in Table 2 within the column labeled: “Time Dependent BTK Enzyme Assay IC50”.
# Stopped reactions were monitored at −2 PSI, −3000 V/−700 V in a LabChip 3000 plate reader from Caliper Life Sciences, a PerkinElmer Company (Hopkinton, Mass.), and the activity was measured by off-chip mobility shift assay measuring the charge/mass difference between substrate and product resulting from peptide phosphorilation. IC50 and efficacy were determined by plotting log [Inhibitor] vs. % Activity in GeneData Screener (Basel, Switzerland). […] I<1 uM and II>1 uM.
# T1 sequence (Q06187 whole entry): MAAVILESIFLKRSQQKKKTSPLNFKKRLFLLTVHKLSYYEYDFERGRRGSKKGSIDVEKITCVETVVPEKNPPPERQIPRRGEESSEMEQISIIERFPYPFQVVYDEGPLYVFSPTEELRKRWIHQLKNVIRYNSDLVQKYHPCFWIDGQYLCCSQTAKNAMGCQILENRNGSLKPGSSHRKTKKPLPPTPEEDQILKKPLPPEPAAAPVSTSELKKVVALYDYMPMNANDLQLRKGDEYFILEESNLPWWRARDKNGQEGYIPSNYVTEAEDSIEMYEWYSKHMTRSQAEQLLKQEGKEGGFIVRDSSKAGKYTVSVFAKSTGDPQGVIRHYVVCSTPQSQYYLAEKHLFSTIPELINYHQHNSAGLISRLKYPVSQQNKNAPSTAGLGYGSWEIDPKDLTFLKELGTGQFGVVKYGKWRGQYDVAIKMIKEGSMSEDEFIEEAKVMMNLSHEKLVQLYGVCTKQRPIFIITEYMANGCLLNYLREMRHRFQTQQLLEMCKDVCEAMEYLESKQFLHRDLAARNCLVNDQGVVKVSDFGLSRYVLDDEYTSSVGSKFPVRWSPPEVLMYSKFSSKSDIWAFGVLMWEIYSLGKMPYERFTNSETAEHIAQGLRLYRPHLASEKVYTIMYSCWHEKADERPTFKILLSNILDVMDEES
row,IC50 [µM],SMILES
1,< 0.1,C=CC(=O)N1CCC(c2ccc(C(N)=O)c(Nc3ccc(C(=O)N4CCN(C(=O)CCCCNC(=O)OC(C)(C)C)CC4)cc3)n2)CC1 [Compound 19]
2,1 to 5,"C=CC(=O)NCc1cccc(-c2ccc(C(N)=O)c(Oc3ccc(Oc4ccccc4)cc3)n2)c1 [Compound 98, 6-(3-(acrylamidomethyl)phenyl)-2-(4-phenoxyphenoxy)nicotinamide]"
3,0.1 to 1,"N#CN1CCC(Nc2cnc(Oc3ccc(Oc4ccccc4)cc3)c(C(N)=O)c2)C1 (stereo not shown) [Compound 243, 5-[(1-cyanopyrrolidin-3-yl)amino]-2-(4-phenoxyphenoxy)pyridine-3-carboxamide]"
4,< 0.1,"C=CC(=O)N[C@@H]1CCCN(c2ccc(C(N)=O)c(Nc3ccc(C(=O)N4CCOCC4)cc3)n2)C1 [Compound 205, (R)-3-Acryloylamino-6′-[4-(morpholine-4-carbonyl)-phenylamino]-3,4,5,6-tetrahydro-2H-[1,2′]bipyridinyl-5′-carboxylic acid amide]"
5,< 0.1,"C=CC(=O)Nc1cccc(-c2ccc(C(N)=O)c(Oc3ccc(Oc4ccccc4)cc3)n2)c1 [Compound 80, 6-(3-acrylamidophenyl)-2-(4-phenoxyphenoxy)nicotinamide]"
6,0.1 to 1,"C=CC(=O)NC1CCN(c2cnc(Oc3ccc(Oc4cccc(F)c4)cc3)c(C(N)=O)c2)CC1 [Compound 212, 4-Acryloylamino-6′-[4-(3-fluoro-phenoxy)-phenoxy]-3,4,5,6-tetrahydro-2H-[1,3′]bipyridinyl-5′-carboxylic acid amide]"
7,1 to 5,"C=CC(=O)N[C@H]1CCN(c2nc(Nc3ccc(N4C[C@@H](C)O[C@@H](C)C4)nc3)c(C(N)=O)cc2F)C1 [Compound 6, 6-((S)-3-Acryloylamino-pyrrolidin-1-yl)-2-[6-(cis-2,6-dimethyl-morpholin-4-yl)-pyridin-3-ylamino]-5-fluoro-nicotinamide]"
8,< 0.1,C=CC(=O)N1CCC(c2ccc(C(N)=O)c(Nc3ccc(C)nc3)n2)CC1 [Compound 49]
9,> 5,C=CC(=O)N1CCn2ncc(-c3cnc(C(N)=O)cn3)c2C1 [Compound 137]
10,0.1 to 1,"C=CC(=O)NCc1ccc(-c2ccc(C(N)=O)c(Oc3ccc(Oc4ccccc4)cc3)n2)cc1 [Compound 89, 6-(4-(acrylamidomethyl)phenyl)-2-(4-phenoxyphenoxy)nicotinamide]"
11,> 5,"C/C=C/C(=O)NC1CCCN(c2cnc(Oc3ccc(Oc4cccc(F)c4)cc3)c(C(N)=O)c2)C1 (stereo not shown) [Compound 222, 3-((E)-But-2-enoylamino)-6′-[4-(3-fluoro-phenoxy)-phenoxy]-3,4,5,6-tetrahydro-2H-[1,3′]bipyridinyl-5′-carboxylic acid amide]"
12,0.1 to 1,"C=CC(=O)N[C@H]1CCN(c2cc(Oc3ccc(OCc4ccccc4)cc3)c(C(N)=O)cn2)C1 [Compound 112, (S)-6-(3-acrylamidopyrrolidin-1-yl)-4-(4-(benzyloxy)phenoxy)nicotinamide]"
13,< 0.1,"C=CC(=O)N[C@@H]1CCN(c2ccc(C(N)=O)c(Nc3ccc(C(=O)N4CCOCC4)cc3)n2)C1 [Compound 47, 6-((R)-3-Acryloylamino-pyrrolidin-1-yl)-2-[4-(morpholine-4-carbonyl)-phenylamino]-nicotinamide]"
14,1 to 5,"C/C=C/C(=O)N1CCC(Nc2cnc(Oc3ccc(Oc4cccc(F)c4)cc3)c(C(N)=O)c2)CC1 [Compound 230, 5-[1-((E)-But-2-enoyl)-piperidin-4-ylamino]-2-[4-(3-fluoro-phenoxy)-phenoxy]-nicotinamide]"
15,0.1 to 1,"C=CC(=O)N1CC2(CC(Nc3ncc(C(N)=O)c(Oc4ccc(Oc5ccccc5)cc4)n3)C2)C1 [Compound 183, 2-((2-acryloyl-2-azaspiro[3.3]heptan-6-yl)amino)-4-(4-phenoxyphenoxy)pyrimidine-5-carboxamide]"

row,SMILES,IC50 [µM]
1,C=CC(=O)N1[C@@H]2CC[C@H]1CC(c1cnc(C(N)=O)cn1)C2 (stereo partly shown) [Compound 136],1 to 5
